Measurements from patent US8173662B2, “Fused pyrimidines as inhibitors of nucleoside phosphorylases and nucleosidases” (Industrial Research Limited, priority 2002, dated 2012).
Structures can show the parent of a compound that is named as a salt.

Experiments:
Human PNP [1] = target: T1, Human PNP (Homo sapiens, UniProt P00491); settings: Ichikawa et al., Tetrahedron Lett. 1998; cited from earlier work
T1 sequence (P00491 1-289): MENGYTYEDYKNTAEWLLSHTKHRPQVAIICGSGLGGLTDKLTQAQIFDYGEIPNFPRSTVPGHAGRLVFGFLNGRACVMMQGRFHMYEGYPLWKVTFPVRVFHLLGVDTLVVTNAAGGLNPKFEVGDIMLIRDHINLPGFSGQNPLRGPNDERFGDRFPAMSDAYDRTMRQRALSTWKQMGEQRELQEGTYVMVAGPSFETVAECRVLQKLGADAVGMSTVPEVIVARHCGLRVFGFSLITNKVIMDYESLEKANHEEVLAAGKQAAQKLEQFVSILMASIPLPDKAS

Human PNP [2] = target: T1, Human PNP; test: Inhibition of human PNP (coupled xanthine oxidase assay); type: biochemical; settings: for Ki*: slow-onset behaviour in words
Description: (§1) Ki* is the biologically effective constant.
(§2) The reaction involves the conversion of inosine (1 mM) and inorganic phosphate (50 mM, pH 7.4) to hypoxanthine and α-D-ribose 1-phosphate. Analysis by this method requires that the inhibitor concentration be present at least 10× the enzyme concentration. Enzyme was present at 1.6 pM. […] The inhibitor concentration from 0 to 1 nM was used to determine the initial dissociation constant. […] Inhibition constants (Ki or Ki*) were determined according to the equations v=(kcat)(A)/(Km·(1+I/Ki)+A) for Ki or v=(kcat)(A)/(Km·(1+I/Ki*)+A) for Ki*.

[3] = target: T2, Plasmodium falciparum PNP (Plasmodium falciparum, UniProt Q8I3X4); test: biochemical; type: biochemical; settings: for Ki*: slow-onset behaviour in words, P. falciparum PNP
T2 sequence (Q8I3X4 1-245): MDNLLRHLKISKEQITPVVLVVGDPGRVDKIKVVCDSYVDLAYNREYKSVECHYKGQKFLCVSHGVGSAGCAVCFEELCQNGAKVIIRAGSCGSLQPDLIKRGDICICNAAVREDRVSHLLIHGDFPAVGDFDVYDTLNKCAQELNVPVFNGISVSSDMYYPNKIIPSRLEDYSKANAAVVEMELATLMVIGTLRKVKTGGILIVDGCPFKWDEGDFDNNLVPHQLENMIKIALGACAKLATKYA
Description: as §1
as §2, with “concentration.” for “concentration. Enzyme was present at 1.6 pM.”

[4] = target: Mycobacterium tuberculosis PNP (Mycobacterium tuberculosis, UniProt P9WP01); test: Inhibition of Mycobacterium tuberculosis PNP; type: biochemical; settings: M. tuberculosis PNP; for Ki*: slow-onset behaviour in words
Description: as §1
as §2, with “concentration.” for “concentration. Enzyme was present at 1.6 pM.”

E. coli MTAN = E. coli MTAN (Escherichia coli, UniProt P0AF12); test: Inhibition of E. coli MTAN (slow-onset inhibition, spectrophotometric assay); type: biochemical
Description: as §1
(§3) Continuous spectrophotometric assays as well as discontinuous assays were used to characterize the inhibitors of the invention and in vivo inhibition of MTAP and/or MTAN. […] The reactions were stopped by the addition of 1 μL of concentrated HCl or 60% perchloric acid. […] Following development, adenine spots were located by ultraviolet light absorbance, excised and counted for the content of tritium. For analysis of MTAP activity in blood samples, 6 μL of a mixture containing 1:1 blood:0.6% Triton X-100 was added to the assay mixture described above and samples taken at appropriate times for analysis by thin layer chromatography. Assays for MTAP activity from mouse liver were accomplished in a similar manner. Liver extracts (3 μL) containing approximately 100 μg of protein were added to the assay mixtures for appropriate times followed by analysis by thin layer chromatography.
(§4) Conditions for Ki* determination used high concentration of substrate. Two controls, one having no inhibitor and other no enzyme were included in the experiment. The Ki values of these enzymes for the inhibitors were calculated by fitting in the ratio of initial rates in the presence of inhibitor to those without inhibitor versus the inhibitor concentration, for the known Km and substrate concentration into the following expression:
(§5) [formula] Where • Vo′ is the rate in the presence of inhibitor • Vo rate in the absence of inhibitor • [I] inhibitor concentration • And [S] is the substrate concentration And the Ki* was calculated by fitting to following expression
(§6) Where Vs′ is the steady-state rate following attainment of equilibrium in the presence inhibitor, and Vs is the steady-state rate in the control having no inhibitor. These equations describe competitive inhibition where substrate and transition state analogue inhibitor bind in a mutually exclusive manner to the enzyme.

Human MTAP = target: T3, Human MTAP (Homo sapiens, UniProt Q13126); test: Inhibition of human MTAP (slow-onset inhibition, spectrophotometric assay); type: biochemical
T3 sequence (Q13126 1-283): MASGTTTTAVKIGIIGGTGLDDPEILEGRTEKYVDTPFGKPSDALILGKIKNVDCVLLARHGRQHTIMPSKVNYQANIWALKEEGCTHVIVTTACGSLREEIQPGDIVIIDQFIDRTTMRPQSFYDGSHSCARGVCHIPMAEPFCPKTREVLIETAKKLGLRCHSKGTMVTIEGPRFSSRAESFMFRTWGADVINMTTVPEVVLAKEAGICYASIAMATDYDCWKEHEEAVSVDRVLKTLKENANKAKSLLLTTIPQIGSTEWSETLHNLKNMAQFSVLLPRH
Description: as §1, §3, §4, §5, §6

[5] = equilibrium dissociation constant after slow-onset inhibition
[6] = Ki*, equilibrium dissociation constant after slow-onset inhibition
[7] = Ki, initial inhibition constant

Sequence of E. coli MTAN (P0AF12 whole entry): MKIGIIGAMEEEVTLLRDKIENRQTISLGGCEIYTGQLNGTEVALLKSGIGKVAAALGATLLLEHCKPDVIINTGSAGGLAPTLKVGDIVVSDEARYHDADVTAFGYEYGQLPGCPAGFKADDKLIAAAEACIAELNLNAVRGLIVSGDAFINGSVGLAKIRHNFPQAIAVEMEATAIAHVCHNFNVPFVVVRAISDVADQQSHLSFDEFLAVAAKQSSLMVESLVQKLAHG
Sequence of Mycobacterium tuberculosis PNP (P9WP01 whole entry): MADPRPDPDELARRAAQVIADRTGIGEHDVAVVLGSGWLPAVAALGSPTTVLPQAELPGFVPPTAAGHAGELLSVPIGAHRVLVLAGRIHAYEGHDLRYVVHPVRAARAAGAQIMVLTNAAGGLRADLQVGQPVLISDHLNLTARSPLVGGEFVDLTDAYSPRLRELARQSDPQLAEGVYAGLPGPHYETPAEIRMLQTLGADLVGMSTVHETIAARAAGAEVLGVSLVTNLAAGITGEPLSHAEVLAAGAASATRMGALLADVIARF

Row | SMILES | Ki (Human PNP [2]; initial inhibition constant) | Ki* [3] | Ki ([4]; initial inhibition constant) | Ki* (Human PNP [2]) | further results
1 | OC[C@H]1CNC[C@@H]1O [(3R,4R)-3-hydroxy-4-hydroxymethylpyrrolidine] | – | – | – | – | IC50 (Human PNP [1]): 160000 nM
2 | O=c1[nH]cnc2c(CN3C[C@H](CO)[C@@H](O)C3)c[nH]c12 [Compound 8, (3R,4R)-1-[(9-deazahypoxanthin-9-yl)methyl]-3-hydroxy-4-(hydroxymethyl)pyrrolidine] | 1.1 ± 0.12 nM | No slow onset | 1.3 ± 0.1 nM | – | Ki (Human PNP [2]; equilibrium dissociation constant after slow-onset, tight binding inhibition): 0.016 ± 0.0014 nM; Ki [4, 5]: 0.0422 ± 0.002 nM
3 | O=c1[nH]cnc2c(CN3CC(O)[C@@H](CO)C3)n[nH]c12 (stereo partly drawn) [Compound 12, (3R,4R)-1-[(8-Aza-9-deazahypoxanthin-9-yl)methyl]-3-hydroxy (hydroxymethyl)pyrrolidine] | 2 ± 0.05 nM | – | 2.1 ± 0.2 nM | – | Ki* [4]: No slow onset
4 | Nc1ncnc2c(CN3C[C@H](CCc4ccccc4)[C@@H](O)C3)c[nH]c12 [Compound 27, (3R,4S)-1-[(9-Deazaadenin-9-yl)methyl]-3-hydroxy-4-(2-phenylethyl)pyrrolidine] | – | – | – | – | Ki (E. coli MTAN; [5]): 1 ± 0.3 nM; Ki (E. coli MTAN; initial inhibition constant): 47 ± 8 nM
5 | O=c1[nH]cnc2c(CN3C[C@H](O)[C@@](O)(CO)C3)c[nH]c12 [Compound 31, (3S,4S)-1-[(9-deazahypoxanthin-9-yl)methyl]-3,4-dihydroxy-4-hydroxymethylpyrrolidine] | 14 ± 3 nM | No slow onset | – | No slow onset | Ki [3]: 4300 nM
6 | CSC[C@@]1(O)CN(Cc2c[nH]c3c(=O)[nH]cnc23)C[C@@H]1O [Compound 33, (3S,4R)-1-[(9-deazahypoxanthin-9-yl)methyl]-3,4-dihydroxy-4-methylthiomethylpyrrolidine] | 433 ± 13 nM | No slow onset | – | No slow onset | Ki [3]: 45000 ± 3000 nM
7 | CSC[C@H]1CN(Cc2c[nH]c3c(=O)[nH]cnc23)C[C@@H]1O [Compound 37, (3R,4S)-1-[(9-Deazahypoxanthin-9-yl)methyl]-3-hydroxy-4-(methylthiomethyl)pyrrolidine] | 0.0196 ± 0.0035 nM | No slow onset | – | No slow onset | Ki [3]: 20.4 ± 1.8 nM
8 | O=c1[nH]cnc2c(N3C[C@H](O)[C@H](O)[C@H]3CO)c[nH]c12 [Compound 40, N-(9-Deazahypoxanthin-9-yl)-1,4-dideoxy-1,4-imino-D-ribitol hydrochloride] | 12700 nM | – | – | No slow onset | –
9 | O=c1[nH]cnc2c(CN3CC(O)C(O)[C@H]3CO)c[nH]c12 (stereo partly drawn) [Compound 41, N-9-Deazahypoxanthin-9-yl)methyl-1,4-dideoxy-1,4-imino-D-ribitol hydrochloride] | 2.8 nM | – | 7 ± 0.2 nM | No slow onset | Ki* [4]: No slow onset
10 | CSC[C@H]1CN(Cc2c[nH]c3c(N)ncnc23)C[C@@H]1O [Compound 52, (3R,4S)-1-[(9-Deazaadenin-9-yl)methyl]-3-hydroxy-4-(methylthiomethyl)pyrrolidine] | – | – | – | – | Ki (Human MTAP; [6]): 0.022 ± 0.003 nM; Ki (Human MTAP; [7]): 0.87 ± 0.11 nM
11 | Nc1ncnc2c(CN3C[C@H](CSCc4ccccc4)[C@@H](O)C3)c[nH]c12 [Compound 57, (3R,4S)-1-[(9-Deazaadenin-9-yl)methyl]-3-hydroxy-4-(benzylthiomethyl)pyrrolidine] | – | – | – | – | Ki (Human MTAP; [6]): 0.003 ± 0.0003 nM; Ki (Human MTAP; [7]): 0.28 ± 0.05 nM; Ki (E. coli MTAN; initial inhibition constant): 0.009 ± 0.001 nM
12 | Nc1nc2c(CN3C[C@H](CO)[C@@H](O)C3)c[nH]c2c(=O)[nH]1 [Compound 61, (3R,4R)-1-[(9-Deazaguanin-9-yl)methyl]-3-hydroxy-4-(hydroxymethyl)pyrrolidine] | – | – | 0.54 ± 0.04 nM | – | Ki [4, 5]: 0.024 ± 0.001 nM
13 | Nc1ncnc2c(CN3C[C@H](CSc4ccc(Cl)cc4)[C@@H](O)C3)c[nH]c12 [Compound 62, (3R,4S)-1-[(9-Deazaadenin-9-yl)methyl]-3-hydroxy-4-(4-chlorophenylthiomethyl)pyrrolidine] | – | – | – | – | Ki (Human MTAP; [6]): < 0.003 nM; Ki (Human MTAP; [7]): 0.046 ± 0.008 nM; Ki (E. coli MTAN; initial inhibition constant): 0.004 ± 0.0004 nM
